According to publication PMC7600309, “Completing the Enalaprilat Excretion Pathway—Renal Handling by the Proximal Tubule” (Pharmaceutics, 2020):
Counter-ions that a name gives are not always drawn. Values belong to the compound of their own block, whether it stands above or below them. Non-standard residues stand in square brackets, D forms with d. Residues, ends and D or L forms follow the SMILES beside them. Sar = CNCC(=O)O

Key:
[1] = biological target: T1, OAT3 (Homo sapiens, UniProt Q8TCC7); assay: radiolabelled model substrate uptake ([…]); assay type: cell-based
T1 construct: gene SLC22A8; NM_004254.3, baculovirus-transduced HEK293 cells
T1 sequence (Q8TCC7 1-542): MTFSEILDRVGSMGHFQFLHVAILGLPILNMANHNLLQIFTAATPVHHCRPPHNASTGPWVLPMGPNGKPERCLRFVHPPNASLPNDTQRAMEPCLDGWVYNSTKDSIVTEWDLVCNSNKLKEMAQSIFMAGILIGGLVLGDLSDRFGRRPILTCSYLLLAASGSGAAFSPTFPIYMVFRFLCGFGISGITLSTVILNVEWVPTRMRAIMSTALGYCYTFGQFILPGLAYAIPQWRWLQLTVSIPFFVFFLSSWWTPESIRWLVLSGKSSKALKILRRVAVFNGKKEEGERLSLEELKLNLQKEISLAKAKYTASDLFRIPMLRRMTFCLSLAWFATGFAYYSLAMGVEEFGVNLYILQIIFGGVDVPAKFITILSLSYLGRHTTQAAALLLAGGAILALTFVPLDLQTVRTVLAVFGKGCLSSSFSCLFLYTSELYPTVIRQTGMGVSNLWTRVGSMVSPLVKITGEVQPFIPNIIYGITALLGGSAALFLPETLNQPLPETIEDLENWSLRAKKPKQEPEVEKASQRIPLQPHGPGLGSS

[2] = biological target: T2, PEPT1 (Homo sapiens, UniProt P46059); assay: radiolabelled model substrate uptake vs control cells; assay type: cell-based
T2 construct: gene SLC15A1; NM_005073.3, baculovirus-transduced HEK293 cells
T2 sequence (P46059 1-708): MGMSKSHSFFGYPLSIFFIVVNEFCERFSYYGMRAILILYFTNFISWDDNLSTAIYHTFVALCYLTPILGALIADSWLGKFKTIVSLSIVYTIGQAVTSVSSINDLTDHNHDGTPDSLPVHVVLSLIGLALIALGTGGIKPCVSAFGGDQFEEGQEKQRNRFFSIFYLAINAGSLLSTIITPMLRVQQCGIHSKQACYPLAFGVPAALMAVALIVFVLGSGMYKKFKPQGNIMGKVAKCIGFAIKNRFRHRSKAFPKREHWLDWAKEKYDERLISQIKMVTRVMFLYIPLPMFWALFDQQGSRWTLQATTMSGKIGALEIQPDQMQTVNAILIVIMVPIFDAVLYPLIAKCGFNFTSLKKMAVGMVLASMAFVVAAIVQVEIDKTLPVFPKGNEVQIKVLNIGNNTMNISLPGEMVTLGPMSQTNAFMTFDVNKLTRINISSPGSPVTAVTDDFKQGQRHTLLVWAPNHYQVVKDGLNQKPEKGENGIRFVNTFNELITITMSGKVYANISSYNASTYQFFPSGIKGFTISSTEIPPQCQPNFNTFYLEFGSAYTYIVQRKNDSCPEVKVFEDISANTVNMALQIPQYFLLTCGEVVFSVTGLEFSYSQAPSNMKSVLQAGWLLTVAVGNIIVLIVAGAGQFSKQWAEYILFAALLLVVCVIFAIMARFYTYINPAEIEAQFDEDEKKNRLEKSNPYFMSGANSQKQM

[3] = biological target: T3, PEPT2 (Homo sapiens, UniProt Q16348); assay: as above; assay type: cell-based
T3 construct: gene SLC15A2; NM_021082.3, baculovirus-transduced HEK293 cells
T3 sequence (Q16348 1-729): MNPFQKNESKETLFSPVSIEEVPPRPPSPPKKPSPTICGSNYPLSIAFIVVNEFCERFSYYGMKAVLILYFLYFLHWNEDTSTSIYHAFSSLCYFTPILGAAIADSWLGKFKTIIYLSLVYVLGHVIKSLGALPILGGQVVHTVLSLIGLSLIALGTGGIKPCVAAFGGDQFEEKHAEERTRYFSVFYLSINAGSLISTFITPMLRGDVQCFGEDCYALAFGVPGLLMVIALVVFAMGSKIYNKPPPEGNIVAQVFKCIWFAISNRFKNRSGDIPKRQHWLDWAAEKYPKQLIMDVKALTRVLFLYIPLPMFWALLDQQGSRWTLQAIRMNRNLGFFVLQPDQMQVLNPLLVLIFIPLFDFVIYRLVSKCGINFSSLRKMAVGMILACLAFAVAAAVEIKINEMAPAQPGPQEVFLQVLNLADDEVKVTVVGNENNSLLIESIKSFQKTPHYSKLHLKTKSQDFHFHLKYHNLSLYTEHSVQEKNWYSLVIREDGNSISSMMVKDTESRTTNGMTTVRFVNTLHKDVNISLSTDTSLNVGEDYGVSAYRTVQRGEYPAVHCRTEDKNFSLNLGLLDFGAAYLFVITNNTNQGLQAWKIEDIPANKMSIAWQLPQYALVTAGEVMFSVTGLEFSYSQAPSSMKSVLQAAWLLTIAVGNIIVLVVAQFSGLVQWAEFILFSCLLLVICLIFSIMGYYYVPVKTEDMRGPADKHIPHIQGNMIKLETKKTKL

[4] = biological target: T4, OAT2 (Homo sapiens, UniProt Q9Y694); assay: as above; assay type: cell-based
T4 construct: gene SLC22A7; NM_006672, baculovirus-transduced HEK293 cells
T4 sequence (Q9Y694 1-548): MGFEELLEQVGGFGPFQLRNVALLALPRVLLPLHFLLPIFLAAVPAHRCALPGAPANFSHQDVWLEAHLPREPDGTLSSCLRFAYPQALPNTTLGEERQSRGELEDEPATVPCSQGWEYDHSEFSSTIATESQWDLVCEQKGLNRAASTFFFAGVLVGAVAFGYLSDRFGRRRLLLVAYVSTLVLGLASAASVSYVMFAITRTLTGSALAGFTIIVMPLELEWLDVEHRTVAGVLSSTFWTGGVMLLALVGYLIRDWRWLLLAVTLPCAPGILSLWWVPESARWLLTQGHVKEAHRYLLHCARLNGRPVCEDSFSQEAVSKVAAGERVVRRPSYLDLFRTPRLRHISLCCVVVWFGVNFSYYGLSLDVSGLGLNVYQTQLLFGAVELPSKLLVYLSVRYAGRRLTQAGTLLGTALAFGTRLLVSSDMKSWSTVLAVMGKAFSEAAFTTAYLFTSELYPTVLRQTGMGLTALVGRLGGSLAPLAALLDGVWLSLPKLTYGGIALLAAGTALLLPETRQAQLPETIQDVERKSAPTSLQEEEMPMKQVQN

[5] = biological target: T5, OCTN1 (Homo sapiens, UniProt Q9H015); assay: as above; assay type: cell-based
T5 construct: gene SLC22A4; NM_003059.2, baculovirus-transduced HEK293 cells
T5 sequence (Q9H015 1-551): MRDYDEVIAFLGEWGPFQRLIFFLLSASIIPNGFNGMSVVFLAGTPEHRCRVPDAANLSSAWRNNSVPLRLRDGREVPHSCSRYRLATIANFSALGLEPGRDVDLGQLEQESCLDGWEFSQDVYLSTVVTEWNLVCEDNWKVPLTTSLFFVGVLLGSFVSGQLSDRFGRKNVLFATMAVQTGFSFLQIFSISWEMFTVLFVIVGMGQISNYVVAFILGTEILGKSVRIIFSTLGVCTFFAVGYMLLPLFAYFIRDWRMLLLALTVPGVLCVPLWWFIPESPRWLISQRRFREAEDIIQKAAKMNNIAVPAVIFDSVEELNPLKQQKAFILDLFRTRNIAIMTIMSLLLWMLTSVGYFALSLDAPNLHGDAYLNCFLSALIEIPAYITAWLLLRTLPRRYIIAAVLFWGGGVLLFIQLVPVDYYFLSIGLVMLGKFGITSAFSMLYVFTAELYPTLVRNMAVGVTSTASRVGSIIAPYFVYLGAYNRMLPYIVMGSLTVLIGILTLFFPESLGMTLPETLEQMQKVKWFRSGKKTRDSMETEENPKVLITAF

[6] = biological target: T6, OCTN2 (Homo sapiens, UniProt O76082); assay: as above; assay type: cell-based
T6 construct: gene SLC22A5; NM_003060.3, baculovirus-transduced HEK293 cells
T6 sequence (O76082 1-557): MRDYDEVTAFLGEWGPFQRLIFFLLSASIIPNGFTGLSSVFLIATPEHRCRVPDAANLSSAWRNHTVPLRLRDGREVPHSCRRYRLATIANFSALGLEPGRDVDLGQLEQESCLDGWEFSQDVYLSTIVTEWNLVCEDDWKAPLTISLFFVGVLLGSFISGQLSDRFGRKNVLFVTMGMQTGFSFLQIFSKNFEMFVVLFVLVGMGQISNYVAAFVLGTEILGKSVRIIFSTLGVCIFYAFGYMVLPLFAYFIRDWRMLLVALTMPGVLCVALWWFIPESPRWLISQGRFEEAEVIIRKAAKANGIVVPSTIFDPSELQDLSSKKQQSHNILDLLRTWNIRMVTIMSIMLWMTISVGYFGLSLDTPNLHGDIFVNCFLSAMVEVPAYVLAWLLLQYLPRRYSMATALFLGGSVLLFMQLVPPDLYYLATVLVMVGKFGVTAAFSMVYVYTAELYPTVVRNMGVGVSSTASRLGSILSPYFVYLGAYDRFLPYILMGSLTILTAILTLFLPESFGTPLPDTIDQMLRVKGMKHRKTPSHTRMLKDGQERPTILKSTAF

[7] = biological target: T1, OAT3; assay: inhibition of [3H]-E1S uptake (Ki); LC-MS/MS uptake in OAT3-HEK293 cells (Km […]); assay type: cell-based
[8] = biological target: T7, OAT4 (Homo sapiens, UniProt Q9NSA0)
T7 construct: gene SLC22A11

[9] = biological target: T8, URAT1 (Homo sapiens, UniProt Q96S37); assay: model substrate uptake vs control cells; assay type: cell-based
T8 construct: gene SLC22A12; NM_144585.3, baculovirus-transduced HEK293 cells
T8 sequence (Q96S37 1-553): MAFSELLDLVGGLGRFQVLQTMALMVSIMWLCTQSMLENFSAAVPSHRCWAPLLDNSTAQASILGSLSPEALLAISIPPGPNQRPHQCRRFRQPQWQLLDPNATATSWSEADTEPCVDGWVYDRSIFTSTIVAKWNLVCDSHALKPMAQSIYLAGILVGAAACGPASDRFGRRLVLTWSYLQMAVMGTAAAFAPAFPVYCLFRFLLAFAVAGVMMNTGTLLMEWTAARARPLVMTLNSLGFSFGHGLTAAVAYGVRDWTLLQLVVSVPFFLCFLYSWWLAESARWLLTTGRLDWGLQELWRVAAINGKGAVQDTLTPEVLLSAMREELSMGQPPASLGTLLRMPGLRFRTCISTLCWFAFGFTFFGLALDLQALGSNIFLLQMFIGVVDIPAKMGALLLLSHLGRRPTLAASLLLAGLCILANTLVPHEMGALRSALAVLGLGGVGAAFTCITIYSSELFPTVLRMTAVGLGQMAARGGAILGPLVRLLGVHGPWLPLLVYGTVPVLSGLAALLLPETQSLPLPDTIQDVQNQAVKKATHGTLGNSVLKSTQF

T7 sequence (Q9NSA0 whole entry): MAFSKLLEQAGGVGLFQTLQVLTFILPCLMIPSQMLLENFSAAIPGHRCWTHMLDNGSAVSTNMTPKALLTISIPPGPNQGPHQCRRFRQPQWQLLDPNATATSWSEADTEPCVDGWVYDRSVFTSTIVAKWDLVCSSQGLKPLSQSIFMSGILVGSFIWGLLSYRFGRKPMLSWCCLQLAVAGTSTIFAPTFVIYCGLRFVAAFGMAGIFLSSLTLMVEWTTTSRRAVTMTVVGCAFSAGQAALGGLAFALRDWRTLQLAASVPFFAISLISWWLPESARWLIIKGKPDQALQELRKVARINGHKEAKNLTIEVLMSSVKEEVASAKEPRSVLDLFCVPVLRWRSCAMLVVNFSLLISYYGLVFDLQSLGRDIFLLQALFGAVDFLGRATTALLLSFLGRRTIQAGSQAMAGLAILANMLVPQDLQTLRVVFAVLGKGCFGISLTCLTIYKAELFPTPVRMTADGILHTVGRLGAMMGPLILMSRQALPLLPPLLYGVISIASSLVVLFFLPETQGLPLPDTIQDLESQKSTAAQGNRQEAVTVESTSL

SMILES: C[C@]12CC[C@@H]3c4ccc(OS(=O)(=O)O)cc4CC[C@H]3[C@@H]1CCC2=O [[^3H]-Estrone sulfate]
radiolabelled model substrate uptake (20 nM) [1]: Transport of [^3H]-E1S by OAT3 was determined in the presence of increasing enalaprilat concentrations

SMILES: CN(CC(=O)O)C(=O)CN [[^3H]-Glycyl-sarcosine] (H-Gly-[Sar]-OH)
radiolabelled model substrate uptake vs control cells [2]: OAT2, OAT4, PEPT1, PEPT2, URAT1, OCTN1, and OCTN2 all showed a significant transport ratio compared to control cells
radiolabelled model substrate uptake vs control cells [3]: OAT2, OAT4, PEPT1, PEPT2, URAT1, OCTN1, and OCTN2 all showed a significant transport ratio compared to control cells

SMILES: Nc1ccc(C(=O)NCC(=O)O)cc1 [[^14C]-para-aminohippuric acid]
radiolabelled model substrate uptake vs control cells [4]: OAT2, OAT4, PEPT1, PEPT2, URAT1, OCTN1, and OCTN2 all showed a significant transport ratio compared to control cells

SMILES: C[N+](C)(C)C[C@H](O)CC(=O)[O-] [[^14C]-Carnitine]
radiolabelled model substrate uptake vs control cells [5]: OAT2, OAT4, PEPT1, PEPT2, URAT1, OCTN1, and OCTN2 all showed a significant transport ratio compared to control cells
radiolabelled model substrate uptake vs control cells [6]: OAT2, OAT4, PEPT1, PEPT2, URAT1, OCTN1, and OCTN2 all showed a significant transport ratio compared to control cells

Ki [7]: 134 µM
Km [8]: > 1000 µM
SMILES: C[C@H](N[C@@H](CCc1ccccc1)C(=O)O)C(=O)N1CCC[C@H]1C(=O)O [enalaprilat]

SMILES: O=c1[nH]c(=O)c2[nH]c(=O)[nH]c2[nH]1 [Urate]
model substrate uptake vs control cells [9]: OAT2, OAT4, PEPT1, PEPT2, URAT1, OCTN1, and OCTN2 all showed a significant transport ratio compared to control cells
